# Assay: Pharmacokinetics in rat plasma after oral administration of SF-CS and SP-CS extracts (HPLC-MS/MS)
# Assay type: in vivo, Male Sprague-Dawley rats
# Details: male, Sprague-Dawley; rat plasma, oral SF-CS extract (A) 1.9 g kg^-1, n = 10
# Protocol: All components were measured on an Agilent 1200 HPLC system (Agilent Corporation, Santa Clara, CA, USA) and API 3200 triple quadrupole mass spectrometer (Concord, ON, Canada) in negative ion mode. Acetonitrile (A) and 0.1% formic acid-water (B) were used to separate the analytes on an Agilent Eclipse plus C18 column (4.6 mm × 100 mm, 1.8 μm) with a flow rate of 0.5 mL·min^−1. […] The equilibration time (10 min) of the sequence was added before the next injection. The column temperature was 30 °C. The optimized main parameters, namely curtain gas, collision gas, ion Spray voltage, and temperature, were set at 30 psi, 8 psi, −4000 V, and 600 °C, respectively.
# The plasma sample (100 μL), IS (10 μL) and formic acid (10 μL) were mixed and vortexed for 1 min. Then, 1 mL of ethyl acetate was spiked into the mixed solution and centrifuged for 10 min at 14,000 rpm. The supernatant was transferred and evaporated with nitrogen gas. These residues were re-dissolved with 100 μL methanol. The final solutions were vortexed for 2 min and centrifuged for 10 min. The supernatant was injected into the HPLC-MS/MS and analyzed.
# The pharmacokinetic study was conducted in accordance with the Guidelines for the Care and Use of Laboratory Animals by USA National Institutes of Health and approved by the Animal Ethics Committee of Tianjin University of Traditional Chinese Medicine (the permit number: TCM-LAEC2019023, Tianjin, China). Male Sprague-Dawley rats (200–240 g) were fed in the animal laboratory of Tianjin University of Traditional Chinese Medicine under the standard conditions. These rats were fed and given water for 1 week before experimentation. […] In order to investigate the influence of processing on the metabolic process of active ingredients in vivo, the same amount of raw CS was processed and administrated. Depending on the clinical dosage that was applied to the human body, the dosage of SF-CS extracts was 1.9 g kg^−1 (an equivalent dosage of 12.75 g kg^−1 raw CS) for oral administration, while extraction of SP-CS was 2.2 g kg^−1 (an equivalent dosage of 12.50 g kg^−1 raw CS). In order to investigate the influence of salt on the metabolic process of active ingredients in vivo, the dosage of SF-CS extracts was 1.9 g kg^−1 (an equivalent dosage of 12.75 g kg^−1 raw CS) and SF-CS extracts with salt ( 0.26 g kg^−1 ) were used to perform the pharmacokinetic study. […] The collected plasma was centrifuged for 10 min at 6000 rpm and stored at −20 °C before analysis.
# All of the pharmacokinetic parameters were estimated with the DAS1.0 system (Medical College of Wannan, China). The maximum concentration of oral administration of CS (Cmax) and the time to reach Cmax (Tmax) were achieved from the concentration–time profile. All values were shown as mean ± standard deviation. Independent t-test was used to compare the pharmacokinetic parameters of the two processed CS.
row,Tmax [h],Structure (SMILES)
1,3.75,"O=C(/C=C/c1ccc(O)c(O)c1)O[C@@H]1C[C@@](O)(C(=O)O)C[C@@H](O)[C@@H]1O [Neochlorogenic acid, neochlorogenic acid]"
2,0.54,"O=C(O)/C=C/c1ccc(O)cc1 [P-coumaric acid, p-coumaric acid]"

row,Structure (SMILES),Tmax [h]
1,"O=c1c(O[C@@H]2O[C@H](CO)[C@H](O)[C@H](O)[C@H]2O)c(-c2ccc(O)c(O)c2)oc2cc(O)cc(O)c12 [Hyperin, hyperin]",0.74

# Same assay, conditions: male, Sprague-Dawley; rat plasma, oral SF-CS extract (A) 1.9 g kg^-1, n = 10, mean ± SD
AUC(0-inf) [ng·h/mL],Cmax [ng/mL],Structure (SMILES)
567 ± 376,88.6 ± 39.6,"O=C(/C=C/c1ccc(O)c(O)c1)O[C@@H]1C[C@@](O)(C(=O)O)C[C@@H](O)[C@@H]1O [Neochlorogenic acid, neochlorogenic acid]"
3290 ± 591,1210 ± 310,"O=C(O)/C=C/c1ccc(O)cc1 [P-coumaric acid, p-coumaric acid]"

Structure (SMILES),AUC(0-inf) [ng·h/mL],Cmax [ng/mL]
"O=c1c(O[C@@H]2O[C@H](CO)[C@H](O)[C@H](O)[C@H]2O)c(-c2ccc(O)c(O)c2)oc2cc(O)cc(O)c12 [Hyperin, hyperin]",331 ± 80,21.3 ± 6.98

# Same assay, conditions: male, Sprague-Dawley; rat plasma, oral SF-CS extract (A) 1.9 g kg^-1, n = 10, mean ± SD; read-out: AUC0–24h
row,AUC(0-t) [ng·h/mL],Structure (SMILES)
1,548 ± 384,"O=C(/C=C/c1ccc(O)c(O)c1)O[C@@H]1C[C@@](O)(C(=O)O)C[C@@H](O)[C@@H]1O [Neochlorogenic acid, neochlorogenic acid]"
2,3200 ± 635,"O=C(O)/C=C/c1ccc(O)cc1 [P-coumaric acid, p-coumaric acid]"

row,Structure (SMILES),AUC(0-t) [ng·h/mL]
1,"O=c1c(O[C@@H]2O[C@H](CO)[C@H](O)[C@H](O)[C@H]2O)c(-c2ccc(O)c(O)c2)oc2cc(O)cc(O)c12 [Hyperin, hyperin]",172 ± 38

# Same assay, conditions: male, Sprague-Dawley; rat plasma, oral SF-CS extract (A) 1.9 g kg^-1, n = 10, mean ± SD; read-out: MRT0–24h
row,MRT last [h],Structure (SMILES)
1,5.57 ± 1.74,"O=C(/C=C/c1ccc(O)c(O)c1)O[C@@H]1C[C@@](O)(C(=O)O)C[C@@H](O)[C@@H]1O [Neochlorogenic acid, neochlorogenic acid]"
2,4.24 ± 1.45,"O=C(O)/C=C/c1ccc(O)cc1 [P-coumaric acid, p-coumaric acid]"

row,Structure (SMILES),MRT last [h]
1,"O=c1c(O[C@@H]2O[C@H](CO)[C@H](O)[C@H](O)[C@H]2O)c(-c2ccc(O)c(O)c2)oc2cc(O)cc(O)c12 [Hyperin, hyperin]",9.19 ± 1.5

# Same assay, conditions: male, Sprague-Dawley; rat plasma, oral SP-CS extract (B) 2.2 g kg^-1, n = 10
row,Tmax [h],Structure (SMILES)
1,0.26,"O=C(/C=C/c1ccc(O)c(O)c1)O[C@@H]1C[C@@](O)(C(=O)O)C[C@@H](O)[C@@H]1O [Neochlorogenic acid, neochlorogenic acid]"
2,0.33,"O=C(O)/C=C/c1ccc(O)cc1 [P-coumaric acid, p-coumaric acid]"

row,Structure (SMILES),Tmax [h]
1,"O=c1c(O[C@@H]2O[C@H](CO)[C@H](O)[C@H](O)[C@H]2O)c(-c2ccc(O)c(O)c2)oc2cc(O)cc(O)c12 [Hyperin, hyperin]",0.11

# Same assay, conditions: male, Sprague-Dawley; rat plasma, oral SP-CS extract (B) 2.2 g kg^-1, n = 10, mean ± SD
AUC(0-inf) [ng·h/mL],Cmax [ng/mL],Structure (SMILES)
178 ± 22,31.8 ± 17.3,"O=C(/C=C/c1ccc(O)c(O)c1)O[C@@H]1C[C@@](O)(C(=O)O)C[C@@H](O)[C@@H]1O [Neochlorogenic acid, neochlorogenic acid]"
2800 ± 951,805 ± 307,"O=C(O)/C=C/c1ccc(O)cc1 [P-coumaric acid, p-coumaric acid]"

Structure (SMILES),AUC(0-inf) [ng·h/mL],Cmax [ng/mL]
"O=c1c(O[C@@H]2O[C@H](CO)[C@H](O)[C@H](O)[C@H]2O)c(-c2ccc(O)c(O)c2)oc2cc(O)cc(O)c12 [Hyperin, hyperin]",185 ± 153,36.6 ± 21.9

# Same assay, conditions: male, Sprague-Dawley; rat plasma, oral SP-CS extract (B) 2.2 g kg^-1, n = 10, mean ± SD; read-out: AUC0–24h
row,AUC(0-t) [ng·h/mL],Structure (SMILES)
1,129 ± 38,"O=C(/C=C/c1ccc(O)c(O)c1)O[C@@H]1C[C@@](O)(C(=O)O)C[C@@H](O)[C@@H]1O [Neochlorogenic acid, neochlorogenic acid]"
2,2570 ± 792,"O=C(O)/C=C/c1ccc(O)cc1 [P-coumaric acid, p-coumaric acid]"

row,Structure (SMILES),AUC(0-t) [ng·h/mL]
1,"O=c1c(O[C@@H]2O[C@H](CO)[C@H](O)[C@H](O)[C@H]2O)c(-c2ccc(O)c(O)c2)oc2cc(O)cc(O)c12 [Hyperin, hyperin]",63 ± 27.8

# Same assay, conditions: male, Sprague-Dawley; rat plasma, oral SP-CS extract (B) 2.2 g kg^-1, n = 10, mean ± SD; read-out: MRT0–24h
row,MRT last [h],Structure (SMILES)
1,8.18 ± 1.66,"O=C(/C=C/c1ccc(O)c(O)c1)O[C@@H]1C[C@@](O)(C(=O)O)C[C@@H](O)[C@@H]1O [Neochlorogenic acid, neochlorogenic acid]"
2,5.68 ± 1.69,"O=C(O)/C=C/c1ccc(O)cc1 [P-coumaric acid, p-coumaric acid]"

row,Structure (SMILES),MRT last [h]
1,"O=c1c(O[C@@H]2O[C@H](CO)[C@H](O)[C@H](O)[C@H]2O)c(-c2ccc(O)c(O)c2)oc2cc(O)cc(O)c12 [Hyperin, hyperin]",8.66 ± 2.37

# Same assay, conditions: rat plasma, oral SF-CS and SP-CS extracts
row,Shape of plasma concentration-time profile,Structure (SMILES)
1,double-peak phenomenon,"O=C(/C=C/c1ccc(O)c(O)c1)O[C@@H]1C[C@@](O)(C(=O)O)C[C@@H](O)[C@@H]1O [Neochlorogenic acid, neochlorogenic acid]"

# Same assay, conditions: rat plasma, oral SF-CS extract
row,AUC(0–24h) [ng·h/mL],Structure (SMILES)
1,3200 ± 635,"O=C(O)/C=C/c1ccc(O)cc1 [P-coumaric acid, p-coumaric acid]"

# Same assay, conditions: rat plasma, oral SF-CS extract (A) 1.9 g kg^-1, n = 10, mean ± SD
T1/2ka [h],T1/2α [h],Structure (SMILES)
1.12 ± 1.66,7.72 ± 7.50,"O=C(/C=C/c1ccc(O)c(O)c1)O[C@@H]1C[C@@](O)(C(=O)O)C[C@@H](O)[C@@H]1O [Neochlorogenic acid, neochlorogenic acid]"
0.15 ± 0.12,1.32 ± 0.86,"O=C(O)/C=C/c1ccc(O)cc1 [P-coumaric acid, p-coumaric acid]"

Structure (SMILES),T1/2ka [h],T1/2α [h]
"O=c1c(O[C@@H]2O[C@H](CO)[C@H](O)[C@H](O)[C@H]2O)c(-c2ccc(O)c(O)c2)oc2cc(O)cc(O)c12 [Hyperin, hyperin]",2.15 ± 4.21,11.7 ± 6.73

# Same assay, conditions: rat plasma, oral SP-CS extract
row,AUC(0–24h) [ng·h/mL],Structure (SMILES)
1,2570 ± 792,"O=C(O)/C=C/c1ccc(O)cc1 [P-coumaric acid, p-coumaric acid]"

# Same assay, conditions: rat plasma, oral SP-CS extract (B) 2.2 g kg^-1, n = 10, mean ± SD
T1/2ka [h],T1/2α [h],Structure (SMILES)
0.02 ± 0.02,3.35 ± 4.31,"O=C(/C=C/c1ccc(O)c(O)c1)O[C@@H]1C[C@@](O)(C(=O)O)C[C@@H](O)[C@@H]1O [Neochlorogenic acid, neochlorogenic acid]"
0.05 ± 0.04,1.40 ± 0.95,"O=C(O)/C=C/c1ccc(O)cc1 [P-coumaric acid, p-coumaric acid]"

Structure (SMILES),T1/2ka [h],T1/2α [h]
"O=c1c(O[C@@H]2O[C@H](CO)[C@H](O)[C@H](O)[C@H]2O)c(-c2ccc(O)c(O)c2)oc2cc(O)cc(O)c12 [Hyperin, hyperin]",0.01 ± 0.01,0.46 ± 0.30
